Results as given in publication PMC8601423 (PLoS ONE, 2021).
“And” between values parts separate entries of the source, which are not always exact repeats. Identical values can stand only once.

Assays:
[1] = test system: IL-6 mRNA, human coronary microvascular endothelial cells; assay type: cell-based
[2] = test system: SRBD internalisation in ACE2 expressing A549 cells; assay type: cell-based, human
[3] = test system: SARS CoV-2 S-protein (Wuhan-Hu-1 strain, spike trimer) expressing PsV, HEK293T cells stably expressing human ACE2; assay type: cell-based, SARS-CoV-2 (Wuhan-Hu-1 strain)
[4] = test system: IL-1β mRNA, human coronary microvascular endothelial cells; assay type: cell-based
[5] = test system: MCP-1 mRNA, human coronary microvascular endothelial cells; assay type: cell-based
purified human ACE2-Fc = biological target: T1, purified human ACE2-Fc (Homo sapiens, UniProt Q9BYF1); experiment: biochemical; assay type: binding
T1 construct: purified recombinant human ACE2-Fc (Q18 –S740, peptidase domain) protein; purchased GenScript
T1 sequence (Q9BYF1 18-740): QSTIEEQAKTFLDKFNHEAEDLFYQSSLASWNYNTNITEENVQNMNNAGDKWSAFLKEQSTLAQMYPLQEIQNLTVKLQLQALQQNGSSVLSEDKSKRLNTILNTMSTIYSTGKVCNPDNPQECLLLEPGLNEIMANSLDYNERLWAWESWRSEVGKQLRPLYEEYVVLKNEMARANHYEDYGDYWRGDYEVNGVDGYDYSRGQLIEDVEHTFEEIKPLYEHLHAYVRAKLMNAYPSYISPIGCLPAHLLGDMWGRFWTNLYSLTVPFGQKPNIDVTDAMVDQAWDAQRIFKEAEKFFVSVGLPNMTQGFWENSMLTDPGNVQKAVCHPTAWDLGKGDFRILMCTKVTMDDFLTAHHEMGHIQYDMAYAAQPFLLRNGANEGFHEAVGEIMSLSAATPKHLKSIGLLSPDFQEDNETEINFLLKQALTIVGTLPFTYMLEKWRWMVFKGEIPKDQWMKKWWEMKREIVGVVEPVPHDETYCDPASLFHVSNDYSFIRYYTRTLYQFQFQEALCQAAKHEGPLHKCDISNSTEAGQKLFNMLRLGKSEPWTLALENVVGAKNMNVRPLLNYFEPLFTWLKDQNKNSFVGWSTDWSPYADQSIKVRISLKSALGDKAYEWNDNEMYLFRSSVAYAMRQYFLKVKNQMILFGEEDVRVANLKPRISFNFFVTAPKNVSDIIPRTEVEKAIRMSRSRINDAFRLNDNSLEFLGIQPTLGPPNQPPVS

[6] = test system: VCAM mRNA, human coronary microvascular endothelial cells; assay type: cell-based

Compound	IL-6, MEAN [1]	IL-6 mRNA expression, peptide alone [1]	S1 induced IL-6 mRNA expression, peptide pre-treated [1]	inhibition of SRBD internalisation (in words) [2]	inhibition of spike PsV cell entry (in words) ([3]; N = 3)	IL-1β mRNA expression, peptide alone [4]	S1 induced IL-1β mRNA expression, peptide pre-treated [4]	MCP-1 mRNA expression, peptide alone [5]	S1 induced MCP-1 mRNA expression, peptide pre-treated [5]	Kd (purified human ACE2-Fc) [µM]	S1 induced VCAM mRNA expression, peptide pre-treated [6]	VCAM mRNA expression, peptide alone [6]	binding to ACE2 (in words) (purified human ACE2-Fc)	inhibition of spike PsV cell entry by soluble ACE2 (in words) [3]
CC(=O)N[C@@H](CO)C(=O)N[C@@H](CCCCN)C(=O)N[C@H](C(=O)NCC(=O)NCC(=O)N[C@@H](CC(N)=O)C(=O)N[C@@H](Cc1ccc(O)cc1)C(=O)N[C@@H](CC(N)=O)C(=O)N[C@@H](Cc1ccc(O)cc1)C(=O)N[C@@H](CC(C)C)C(=O)N[C@@H](Cc1ccc(O)cc1)C(=O)N[C@@H](CCCNC(=N)N)C(=O)N[C@@H](CC(C)C)C(=O)N[C@@H](Cc1ccccc1)C(=O)N[C@@H](CCCNC(=N)N)C(=O)N[C@@H](CCCCN)C(N)=O)C(C)C [RBM1]	0.7896 and 1.445	did not mimic S1 protein-induced inflammation	did not attenuate the S1 induced inflammatory response	marked, yet non-significant reduction	did not inhibit PsV cell entry	did not mimic S1 protein-induced inflammation	did not attenuate the S1 induced inflammatory response	did not mimic S1 protein-induced inflammation	did not attenuate the S1 induced inflammatory response	0.207	did not attenuate the S1 induced inflammatory response	did not mimic S1 protein-induced inflammation		
Ac-NYGLQGSPFGYQETPYPFCNFVQYG-NH2 [RBM2A-Sc]	0.966 and 1.58			did not significantly inhibit SRBD-mediated internalisation									appeared to bind to ACE2 in a dose-dependent manner (Fig 4C) saturation of ACE2 binding was not achieved	
soluble ACE2 protein														completely blocked spike PsV cell entry
